The values below are quoted from earlier work in PubChem BioAssay AID1259409 (Chemical Carcinogenesis Research Information System (CCRIS), 2018).

For the data set, the system named is rodent chemically induced tumor inhibition, incidence and multiplicity. The data set can be described thus: CCRIS tumor inhibitor studies. Particulars: Route [Inhibitor]: ORAL, Species: HAMSTER, Promoter: NONE USED. From the text:
The CCRIS database contains chemical records with carcinogenicity, mutagenicity, tumor promotion, and tumor inhibition test results. It was developed by the National Cancer Institute (NCI). Data are derived from studies cited in primary journals, current awareness tools, NCI reports, and other sources. Test results have been reviewed by experts in carcinogenesis and mutagenesis.
CCRIS provides historical information from the years 1985 - 2011. It is no longer updated.
This is an archive assay for CCRIS tumor inhibitor studies.

On to `CCNC(=O)/C=C(C)/C=C/C=C(C)/C=C/C1=C(C)CCCC1(C)C`, for which the “tumour outcome (control, treated, inhibition, significance)” value is listed as 20/24 (83%), 37/40 (90%), -8%, not significant (Carcinogen: N-NITROBIS(2-OXOPROPYL)AMINE, 60559-38-4, Dose [Inhibitor]: 0.5 OR 1.0 MMOL/KG DIET DAILY STARTING 1 WK AFTER CARCINOGEN TREATMENT AND CONTINUING THROUGH THE END OF THE STUDY (STUD, Strain/Sex: SYRIAN/MALE, Target Tissue: Type of Lesion: ND: TOTAL TUMOR, Dose [Carcinogen]: 40 MG/KG BW SINGLE ONCE); 3/22 (14%), 16/30 (53%), -279%, p<0.05 (Carcinogen: N-NITROBIS(2-OXOPROPYL)AMINE, 60559-38-4, Dose [Inhibitor]: 0.5 OR 1.0 MMOL/KG DIET DAILY STARTING 1 WK AFTER CARCINOGEN TREATMENT AND CONTINUING THROUGH THE END OF THE STUDY (STUD, Strain/Sex: SYRIAN/MALE, Target Tissue: Type of Lesion: PANCREAS: DUCTULAR ADENOMA, Dose [Carcinogen]: 10 MG/KG BW ONCE); 8/24 (33%), 33/40 (82%), -148%, not significant (Carcinogen: N-NITROBIS(2-OXOPROPYL)AMINE, 60559-38-4, Dose [Inhibitor]: 0.5 OR 1.0 MMOL/KG DIET DAILY STARTING 1 WK AFTER CARCINOGEN TREATMENT AND CONTINUING THROUGH THE END OF THE STUDY (STUD, Strain/Sex: SYRIAN/MALE, Target Tissue: Type of Lesion: PANCREAS: DUCTULAR ADENOMA, Dose [Carcinogen]: 40 MG/KG BW ONCE); 4/22 (18%), 10/30 (33%), -83%, not significant (Carcinogen: N-NITROBIS(2-OXOPROPYL)AMINE, 60559-38-4, Dose [Inhibitor]: 0.5 OR 1.0 MMOL/KG DIET DAILY STARTING 1 WK AFTER CARCINOGEN TREATMENT AND CONTINUING THROUGH THE END OF THE STUDY (STUD, Strain/Sex: SYRIAN/MALE, Target Tissue: Type of Lesion: PANCREAS: DUCTULAR CARCINOMA, Dose [Carcinogen]: 10 MG/KG BW ONCE); 5/24 (21%), 20/40 (50%), -138%, not significant (Carcinogen: N-NITROBIS(2-OXOPROPYL)AMINE, 60559-38-4, Dose [Inhibitor]: 0.5 OR 1.0 MMOL/KG DIET DAILY STARTING 1 WK AFTER CARCINOGEN TREATMENT AND CONTINUING THROUGH THE END OF THE STUDY (STUD, Strain/Sex: SYRIAN/MALE, Target Tissue: Type of Lesion: PANCREAS: DUCTULAR CARCINOMA, Dose [Carcinogen]: 40 MG/KG BW ONCE); 4/20 (20%), 17/37 (46%), -130%, not significant (Carcinogen: N-NITROBIS(2-OXOPROPYL)AMINE, 60559-38-4, Dose [Inhibitor]: 0.5 OR 1.0 MMOL/KG IN DIET STARTING 1 WK AFTER CARCINOGEN DOSE FOR DURATION OF STUDY (STUDY DURATION: 40 WK), Strain/Sex: SYRIAN/FEMALE, Target Tissue: Type of Lesion: LIVER: BENIGN TUMOR, Dose [Carcinogen]: 40 MG/KG BW SINGLE INJECTION). The “tumour outcome (control, treated, inhibition, significance)” value by setting is: (Carcinogen: N-NITROBIS(2-OXOPROPYL)AMINE, 60559-38-4, Dose [Inhibitor]: 0.5 OR 1.0 MMOL/KG IN DIET STARTING 1 WK AFTER CARCINOGEN DOSE FOR DURATION OF STUDY (STUDY DURATION: 40 WK), Strain/Sex: SYRIAN/MALE, Target Tissue: Type of Lesion: LIVER: BENIGN TUMOR, Dose [Carcinogen]: 40 MG/KG BW SINGLE INJECTION) 5/24 (21%), 25/41 (62%), -195%, p<0.05; (Carcinogen: N-NITROBIS(2-OXOPROPYL)AMINE, 60559-38-4, Dose [Inhibitor]: 0.5 OR 1.0 MMOL/KG/D IN DIET STARTING 1 WK AFTER CARCINOGEN TREATMENT AND CONTINUING THROUGH THE END OF THE STUDY (STUDY, Strain/Sex: SYRIAN/FEMALE, Target Tissue: Type of Lesion: PANCREAS: DUCTULAR ADENOMA, Dose [Carcinogen]: 10 MG/KG BW ONCE) 5/23 (23%), 13/25 (52%), -126%, not significant; (Carcinogen: N-NITROBIS(2-OXOPROPYL)AMINE, 60559-38-4, Dose [Inhibitor]: 0.5 OR 1.0 MMOL/KG/D IN DIET STARTING 1 WK AFTER CARCINOGEN TREATMENT AND CONTINUING THROUGH THE END OF THE STUDY (STUDY, Strain/Sex: SYRIAN/FEMALE, Target Tissue: Type of Lesion: PANCREAS: DUCTULAR ADENOMA, Dose [Carcinogen]: 40 MG/KG BW ONCE) 12/20 (60%), 27/37 (73%), -22%, not significant; (Carcinogen: N-NITROBIS(2-OXOPROPYL)AMINE, 60559-38-4, Dose [Inhibitor]: 0.5 OR 1.0 MMOL/KG/D IN DIET STARTING 1 WK AFTER CARCINOGEN TREATMENT AND CONTINUING THROUGH THE END OF THE STUDY (STUDY, Strain/Sex: SYRIAN/FEMALE, Target Tissue: Type of Lesion: PANCREAS: DUCTULAR CARCINOMA, Dose [Carcinogen]: 10 MG/KG BW ONCE) 6/23 (27%), 6/25 (24%), 11%, not significant; (Carcinogen: N-NITROBIS(2-OXOPROPYL)AMINE, 60559-38-4, Dose [Inhibitor]: 0.5 OR 1.0 MMOL/KG/D IN DIET STARTING 1 WK AFTER CARCINOGEN TREATMENT AND CONTINUING THROUGH THE END OF THE STUDY (STUDY, Strain/Sex: SYRIAN/MALE, Target Tissue: Type of Lesion: PANCREAS: DUCTULAR ADENOMA, Dose [Carcinogen]: 10 MG/KG BW ONCE) 3/22 (14%), 16/30 (53%), -279%, p<0.05; (Carcinogen: N-NITROBIS(2-OXOPROPYL)AMINE, 60559-38-4, Dose [Inhibitor]: 0.5 OR 1.0 MMOL/KG/D IN DIET STARTING 1 WK AFTER CARCINOGEN TREATMENT AND CONTINUING THROUGH THE END OF THE STUDY (STUDY, Strain/Sex: SYRIAN/MALE, Target Tissue: Type of Lesion: PANCREAS: DUCTULAR ADENOMA, Dose [Carcinogen]: 40 MG/KG BW ONCE) 8/24 (33%), 33/40 (82%), -148%, not significant. Further, the “tumour outcome (control, treated, inhibition, significance)” value runs as follows: (Carcinogen: N-NITROBIS(2-OXOPROPYL)AMINE, 60559-38-4, Dose [Inhibitor]: 0.5 OR 1.0 MMOL/KG/D IN DIET STARTING 1 WK AFTER CARCINOGEN TREATMENT AND CONTINUING THROUGH THE END OF THE STUDY (STUDY, Strain/Sex: SYRIAN/MALE, Target Tissue: Type of Lesion: PANCREAS: DUCTULAR CARCINOMA, Dose [Carcinogen]: 10 MG/KG BW ONCE) 4/22 (18%), 10/30 (33%), -83%, not significant; (Carcinogen: N-NITROBIS(2-OXOPROPYL)AMINE, 60559-38-4, Dose [Inhibitor]: 0.5 OR 1.0 MMOL/KG/D IN DIET STARTING 1 WK AFTER CARCINOGEN TREATMENT AND CONTINUING THROUGH THE END OF THE STUDY (STUDY, Strain/Sex: SYRIAN/MALE, Target Tissue: Type of Lesion: PANCREAS: DUCTULAR CARCINOMA, Dose [Carcinogen]: 40 MG/KG BW ONCE) 5/24 (21%), 20/40 (50%), -138%, not significant; (Carcinogen: N-NITROBIS(2-OXOPROPYL)AMINE, 60599-38-4, Dose [Inhibitor]: 0.5 OR 1 MMOL/KG DIET DAILY STARTING 1 WK AFTER CARCINOGEN TREATMENT AND CONTINUING THROUGH THE END OF THE STUDY (STUDY, Strain/Sex: SYRIAN/FEMALE, Target Tissue: Type of Lesion: PANCREAS: DUCTULAR CARCINOMA, Dose [Carcinogen]: 40 MG/KG BW ONCE) 6/20 (30%), 16/37 (43%), -43%, not significant; (Carcinogen: N-NITROBIS(2-OXOPROPYL)AMINE, 60599-38-4, Dose [Inhibitor]: 0.5 OR 1.0 MMOL/KG/D IN DIET STARTING 1 WK AFTER CARCINOGEN TREATMENT AND CONTINUING THROUGH THE END OF THE STUDY (STUDY, Strain/Sex: SYRIAN/FEMALE, Target Tissue: Type of Lesion: PANCREAS: DUCTULAR CARCINOMA, Dose [Carcinogen]: 40 MG/KG BW ONCE) 6/20 (30%), 16/37 (43%), -43%, not significant; (Carcinogen: N-NITROSOBIS(2-OXYPROPYL)AMINE, 60599-38-4, Dose [Inhibitor]: 0.05, 0.1 OR 0.2 MILLIMOLAR/KG DIET FOR 32 WK STARTING 1 WK AFTER THE CARCINOGEN DOSE (STUDY DURATION: 33 WK), Strain/Sex: SYRIAN/FEMALE, Target Tissue: Type of Lesion: COMMON DUCT: ADENOMA, Dose [Carcinogen]: 40 MG/KG ONCE) 4/10 (40%), 7/26 (32%), 20%, not significant.
